The values below come from patent US11512057B2, “Unsaturated hydrocarbon pyrimidine thioether compounds and preparation method and application thereof” (Zhejiang University of Technology, priority 2018, dated 2022).

For assay [1], the system named is powdery mildew of cucumber. Put plainly: Prevention experiment of powdery mildew of cucumber, living pot assay. It is filed as in vivo. Particulars: 200 ppm; cucumber seedlings, about 10 days. As for the experimental part:
The living pot assay method was adopted, that is, the sample of the test compound was dissolved with a small amount of DMF solvent (the kind of solvent such as acetone, methanol, DMF, etc., is selected according to the solvency of the sample, and the volume ratio of the solvent amount to the spray amount is equal to or less than 0.05), diluted with water containing 0.1% Tween 80, and formulated into the test solution with a desired concentration. Cucumber seedlings at leaf period with the same growth period was sprayed evenly with the prepared agent, and aired. Each concentration was one treatment, each treatment was repeated 3 times, a control agent and a water of blank control were set separately. The fresh powdery mildew spores on the leaves of cucumbers were washed and filtered with double gauze to prepare a suspension with a concentration of about 100,000 spores/mL. The samples were inoculated by spraying, the inoculated samples were moved into artificial climate, and relative humidity was maintained at 60-70%, the temperature was maintained at 23° C., after about 10 days, grading investigation was carried out according to the morbidity of the blank control, control effect was calculated according to disease index.

The test system of a further assay is armyworm. In words: Activity test of armyworm, leaf-dipping method. The assay is classed as in vivo. To be noted: after 3 days. As to the method:
A certain amount of the original drug was weighed by an analytical balance (0.0001 g), and dissolved in DMF containing 1% Tween-80 emulsifier to prepare a 1% mother liquor, which was then diluted with distilled water for later use.
The insecticidal efficacy was evaluated by a leaf-dipping method with the armyworm as a target and a spray method with Tetranychus cinnabarinus and Aphis craccivora Koch as a target.
Leaf-dipping method: the target for the test was the armyworm, and corn leaves in an appropriate amount were fully infiltrated in the prepared liquid, then dried naturally, placed in culture dishes with filter papers, inoculated with 3rd instar larvae of the armyworm at 10 heads/dish, and placed in an observation room and cultured at 24˜27° C. the results were investigated after 3 days. A brush was used to touch the insect bodies, and the unresponsive were regarded as dead insects.

Regarding `C=CCSc1nc(C)cc(OCc2ccccc2/C(=C\OC)C(=O)OC)n1` [Compound 1], the “effect of preventing powdery mildew” value in assay [1] is 100%.
Turning to `C=CCSc1nc(OCc2ccccc2/C(=C\OC)C(=O)OC)c(Cl)c(C(F)F)n1` [Compound 9], the “effect of preventing powdery mildew” value in assay [1] came out at 100%. Moreover, the “lethal rate on armyworm larvae” value with armyworm (500 mg/L, 3rd instar larvae) is on record as 100%.
For `C=C(Cl)CSc1nc(OCc2ccccc2/C(=C\OC)C(=O)OC)cc(C(F)F)n1` [Compound 34], the “effect of preventing powdery mildew” value in assay [1] is reported as 100%. Also, the “lethal rate on armyworm larvae” value with armyworm (500 mg/L, 3rd instar larvae) came out at 100%.
As for `C=C(Cl)CSc1nc(OCc2ccccc2/C(=C\OC)C(=O)OC)cc(C(F)(F)F)n1` [Compound 35], the “effect of preventing powdery mildew” value in assay [1] is given as 100%. The “lethal rate on armyworm larvae” value with armyworm (500 mg/L, 3rd instar larvae) came out at 100%.
On to `C=C(Cl)CSc1nc(CC)cc(OCc2ccccc2/C(=C\OC)C(=O)OC)n1` [Compound 36], for which the “effect of preventing powdery mildew” value in assay [1] stood at 100%. Besides, the “lethal rate on armyworm larvae” value in the assay with armyworm (500 mg/L, 3rd instar larvae) is on record as 100%.
As to `CO/C=C(/C(=O)OC)c1ccccc1COc1cc(C)nc(SC/C=C/Cl)n1` [Compound 49], the “effect of preventing powdery mildew” value in assay [1] stood at 100%.
`CO/C=C(/C(=O)OC)c1ccccc1COc1cc(C(F)F)nc(SC/C=C/Cl)n1` [Compound 50]: in assay [1], the “effect of preventing powdery mildew” value is reported as 100%.
`CO/C=C(/C(=O)OC)c1ccccc1COc1cc(C(F)(F)F)nc(SC/C=C/Cl)n1` [Compound 51]: the “effect of preventing powdery mildew” value in assay [1] was found to be 100%. Moreover, the “lethal rate on armyworm larvae” value with armyworm (500 mg/L, 3rd instar larvae) was 100%.
Consider `CO/C=C(/C(=O)OC)c1ccccc1COc1cc(C2CC2)nc(SC/C=C/Cl)n1` [Compound 55], for which, in assay [1], the “effect of preventing powdery mildew” value worked out at 100%.
With `CCc1cc(OCc2ccccc2/C(=C\OC)C(=O)OC)nc(SCC=C(Cl)Cl)n1` [Compound 68], the “lethal rate on armyworm larvae” value in the assay with armyworm (100 mg/L) is on record as “more than 80%”.
Take `CO/C=C(/C(=O)OC)c1ccccc1COc1cc(C)nc(SCCC=C(F)F)n1` [Compound 113]: in assay [1], the “effect of preventing powdery mildew” value was found to be 100%. In the assay with armyworm (500 mg/L, 3rd instar larvae), the “lethal rate on armyworm larvae” value was determined as 100%.
On to `CO/C=C(/C(=O)OC)c1ccccc1COc1cc(C(F)F)nc(SCCC=C(F)F)n1` [Compound 114], for which the “effect of preventing powdery mildew” value in assay [1] was 100%.
Consider `CCc1cc(OCc2ccccc2/C(=C\OC)C(=O)OC)nc(SCCC=C(F)F)n1` [Compound 116], for which the “lethal rate on armyworm larvae” value with armyworm (500 mg/L, 3rd instar larvae) is given as 100%.
As to `CCCc1cc(OCc2ccccc2/C(=C\OC)C(=O)OC)nc(SCCC=C(F)F)n1` [Compound 117], the “lethal rate on armyworm larvae” value in the assay on armyworm (500 mg/L, 3rd instar larvae) is 100%.
Same read-out and setting: in the case of `CO/C=C(/C(=O)OC)c1ccccc1COc1cc(C(C)C)nc(SCCC=C(F)F)n1` [Compound 118] it was 100%; in that of `CO/C=C(/C(=O)OC)c1ccccc1COc1cc(C2CC2)nc(SCCC=C(F)F)n1` [Compound 119], 100%.
On to `CO/C=C(/C(=O)OC)c1ccccc1COc1nc(SCCC=C(F)F)nc(C)c1C` [Compound 127], for which the “effect of preventing powdery mildew” value in assay [1] came out at 100%.
For the molecule `CCCCc1c(C)nc(SCCC=C(F)F)nc1OCc1ccccc1/C(=C\OC)C(=O)OC` [Compound 128], in the assay with armyworm (500 mg/L, 3rd instar larvae), the “lethal rate on armyworm larvae” value came to 100%.
As for `C=CCSc1nc(C)cc(OCc2ccccc2/C(=N\OC)C(=O)OC)n1` [Compound 145], the “lethal rate on armyworm larvae” value in the assay with armyworm (500 mg/L, 3rd instar larvae) was found to be 100%.
Consider `C=CCSc1nc(OCc2ccccc2/C(=N\OC)C(=O)OC)cc(C(F)F)n1` [Compound 146], for which the “effect of preventing powdery mildew” value in assay [1] is recorded as 100%.
With `C=CCSc1nc(OCc2ccccc2/C(=N\OC)C(=O)OC)cc(C(F)(F)F)n1` [Compound 147], the “lethal rate on armyworm larvae” value with armyworm (500 mg/L, 3rd instar larvae) worked out at 100%.
With `C=C(Cl)CSc1nc(C)cc(OCc2ccccc2/C(=N\OC)C(=O)OC)n1` [Compound 177], the “effect of preventing powdery mildew” value in assay [1] was found to be 100%.
With `C=C(Cl)CSc1nc(OCc2ccccc2/C(=N\OC)C(=O)OC)cc(C(F)(F)F)n1` [Compound 179], the “effect of preventing powdery mildew” value in assay [1] came out at 100%. Further, the “lethal rate on armyworm larvae” value with armyworm (500 mg/L, 3rd instar larvae) worked out at 100%.
As to `C=C(Cl)CSc1nc(CC)cc(OCc2ccccc2/C(=N\OC)C(=O)OC)n1` [Compound 180], the “effect of preventing powdery mildew” value in assay [1] was 100%. Also, the “lethal rate on armyworm larvae” value in the assay with armyworm (500 mg/L, 3rd instar larvae) was 100%.
As for `C=C(Cl)CSc1nc(C)c(C)c(OCc2ccccc2/C(=N\OC)C(=O)OC)n1` [Compound 191], the “effect of preventing powdery mildew” value in assay [1] came to 100%.
Take `CO/N=C(/C(=O)OC)c1ccccc1COc1cc(C)nc(SC/C=C/Cl)n1` [Compound 193]: the “effect of preventing powdery mildew” value in assay [1] is 100%. For the same molecule, the “lethal rate on armyworm larvae” value in the assay on armyworm (500 mg/L, 3rd instar larvae) amounted to 100%.
In the case of `CO/N=C(/C(=O)OC)c1ccccc1COc1cc(C(F)F)nc(SC/C=C/Cl)n1` [Compound 194], in assay [1], the “effect of preventing powdery mildew” value was 100%. Moreover, the “lethal rate on armyworm larvae” value in the assay with armyworm (500 mg/L, 3rd instar larvae) is 100%.
In the case of `CO/N=C(/C(=O)OC)c1ccccc1COc1cc(C2CC2)nc(SC/C=C/Cl)n1` [Compound 199], the “effect of preventing powdery mildew” value in assay [1] was 100%. In addition, the “lethal rate on armyworm larvae” value in the assay with armyworm (500 mg/L, 3rd instar larvae) is recorded as 100%.
Turning to `CO/N=C(/C(=O)OC)c1ccccc1COc1cc(C(F)(F)F)nc(SCC=C(Cl)Cl)n1` [Compound 211], the “lethal rate on armyworm larvae” value in the assay with armyworm (500 mg/L, 3rd instar larvae) came out at 100%.
On the same count and under the same terms, in the case of `CCCc1cc(OCc2ccccc2/C(=N\OC)C(=O)OC)nc(SCC=C(Cl)Cl)n1` [Compound 213] it was 100%; in that of `CO/N=C(/C(=O)OC)c1ccccc1COc1cc(C(C)C)nc(SCC=C(Cl)Cl)n1` [Compound 214], 100%; in that of `CO/N=C(/C(=O)OC)c1ccccc1COc1cc(C2CC2)nc(SCC=C(Cl)Cl)n1` [Compound 215], 100%.
On the same count and under the same terms, next, `CCc1cc(OCc2ccccc2/C(=N\OC)C(=O)OC)nc(SCCC=C(F)F)n1` [Compound 260]: 100%; `CCCc1cc(OCc2ccccc2/C(=N\OC)C(=O)OC)nc(SCCC=C(F)F)n1` [Compound 261]: 100%.
As to `CO/N=C(/C(=O)OC)c1ccccc1COc1nc(SCCC=C(F)F)nc(C)c1C` [Compound 271], the “effect of preventing powdery mildew” value in assay [1] stood at 100%. For the same molecule, the “lethal rate on armyworm larvae” value with armyworm (500 mg/L, 3rd instar larvae) is listed as 100%.
In the case of `COC(=O)N(OC)c1ccccc1COc1cc(C)nc(SC/C=C/Cl)n1` [Compound 337], in the assay with armyworm (500 mg/L, 3rd instar larvae), the “lethal rate on armyworm larvae” value amounted to 100%.
Still for that read-out and setting: in the case of `COC(=O)N(OC)c1ccccc1COc1cc(C(F)F)nc(SC/C=C/Cl)n1` [Compound 338] it was 100%.
Still for that read-out and setting: next, `COC(=O)N(OC)c1ccccc1COc1cc(C)nc(SCC=C(Cl)Cl)n1` [Compound 353]: 100%; `COC(=O)N(OC)c1ccccc1COc1cc(C(F)F)nc(SCC=C(Cl)Cl)n1` [Compound 354]: 100%.
On the same count and under the same terms, in the case of `CCc1cc(OCc2ccccc2N(OC)C(=O)OC)nc(SCC=C(Cl)Cl)n1` [Compound 356] it was 100%; in that of `CCCc1cc(OCc2ccccc2N(OC)C(=O)OC)nc(SCC=C(Cl)Cl)n1` [Compound 357], 100%.
For `COC(=O)N(OC)c1ccccc1COc1cc(C2CC2)nc(SCC=C(Cl)Cl)n1` [Compound 359], the “lethal rate on armyworm larvae” value in the assay on armyworm (500 mg/L, 3rd instar larvae) worked out at 100%.
For the molecule `CCCc1cc(OCc2ccccc2N(OC)C(=O)OC)nc(SCCC=C(F)F)n1` [Compound 405], the “lethal rate on armyworm larvae” value with armyworm (500 mg/L, 3rd instar larvae) was found to be 100%.
For `COC(=O)N(OC)c1ccccc1COc1cc(C(C)C)nc(SCCC=C(F)F)n1` [Compound 406], the “lethal rate on armyworm larvae” value with armyworm (500 mg/L, 3rd instar larvae) turned out to be 100%.
`CCc1cc(OCc2ccccc2C(=NOC)C(=O)NC)nc(SCCC=C(F)F)n1` [Compound 549]: the “lethal rate on armyworm larvae” value in the assay on armyworm (500 mg/L, 3rd instar larvae) amounted to 100%.
